Measured values: PubChem BioAssay (NCI)
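Step 1: Grow cells in 96-well plates. Step 2: Expose to compound for 48 hours at 5 concentrations. Step 3: Interpolate endpoints linearly; if unreached, use highest concentration. The concentration for full growth arrest is given as TGI.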

Columns and labels:
Experiment in all cases: NCI anticancer screen, dose series, 48 h
[1] = test system: MDA-MB-435
[2] = test system: NCI-H522 lung
[3] = test system: OVCAR-5 ovarian
[4] = test system: PC-3 prostate
[5] = test system: RPMI-8226 leukemia
[6] = test system: RXF 393 renal
[7] = test system: SK-MEL-28 melanoma
[8] = test system: SNB-19 CNS
[9] = test system: SNB-75 CNS
[10] = test system: TK-10 renal
[11] = test system: UACC-62 melanoma

SMILES | TGI [1] | TGI [2] | TGI [3] | TGI [4] | TGI [5] | TGI [6] | TGI [7] | TGI [8] | TGI [9] | TGI [10] | TGI [11]
C/C(Nc1ccc(Cl)cc1)=C1/CCOC1=O | > 100 µM | > 100 µM | > 100 µM | > 100 µM | 60.3 µM | > 100 µM | > 100 µM | > 100 µM | > 100 µM | > 100 µM | > 100 µM
CC(=O)NN(c1ccccc1)C1CCN(c2ccccc2)N1C(C)=O (stereo not given) | > 10 µM | > 10 µM | > 10 µM | > 10 µM | > 10 µM | > 10 µM | > 10 µM | > 10 µM | > 10 µM | > 10 µM | 
Cc1ccc2nc(C(=O)O)c(=O)[nH]c2c1 | > 100 µM | > 100 µM | > 100 µM | > 100 µM | > 100 µM | > 100 µM | > 100 µM | > 100 µM |  | > 100 µM | > 100 µM
CCC1CN2CCc3c([nH]c4ccccc34)[C@@](C(=O)OC)(c3cc4c(cc3OC)N(C)C3C(O)(C(=O)OC)C(C(=O)OC)C5(CC)C=CCN6CCC43C65)C[C@@H](C2)[C@@H]1C(C)(C)C (stereo not given in full) | 0.462 µM | 3.56 µM | > 10 µM | 3.26 µM | > 4.43 µM | > 10 µM | > 10 µM | > 2.53 µM | > 10 µM | > 10 µM | > 10 µM
Clc1cc2ncn(C3CCCCO3)c2cc1Cl (stereo not given) | > 100 µM | 59.2 µM | > 100 µM | > 100 µM | > 100 µM | > 100 µM | > 100 µM | > 100 µM | 53.9 µM |  | > 100 µM
Oc1ccc(SCc2cc(O)ccc2O)cc1 | 27.1 µM | 4.88 µM | 49.5 µM | > 52.7 µM | > 100 µM | 25.5 µM | 46.7 µM | > 80.2 µM | > 65.9 µM | 33.9 µM | 53.2 µM
CC(C)=CCc1c2c(c(O)c3c(=O)c4c(oc13)-c1ccc(O)cc1OC4C=C(C)C)C=CC(C)(C)O2 (stereo not given) | 23.3 µM | 26.9 µM | 35.9 µM | 24.7 µM | 14.9 µM | 20.1 µM | 29.2 µM | 30.2 µM | 25.3 µM | 28.5 µM | 27.4 µM
Cc1cc2occ(S(=O)(=O)NC(=O)Nc3ccc(Cl)cc3)c(=O)c2c(=O)o1 | > 100 µM | > 100 µM | > 100 µM | > 100 µM | > 100 µM | > 100 µM | > 100 µM | > 100 µM | > 100 µM | > 100 µM | > 100 µM
Cc1ncc(CSC(=N)N)n1Cc1ccccc1 | > 100 µM | 64.4 µM | > 100 µM | > 100 µM | 83.2 µM | > 100 µM | > 100 µM | > 100 µM |  | > 100 µM | > 100 µM
COc1cc2c(cc1OC)C(=O)N(c1ccc(OCCN3CCCC3)cc1)C2=O | > 100 µM | > 100 µM | > 100 µM | > 100 µM | > 100 µM | > 100 µM | > 100 µM | > 100 µM |  | > 100 µM | > 100 µM
